This note sets out measurements from PMC10482691, “LTP induction by structural rather than enzymatic functions of CaMKII” (Nature, 2023).

The subject of experiment [1] is GFP–paCaMKII T286A in hippocampal neurons. Put plainly: paCaMKII T286A photoactivation: dendritic spine growth (sLTP). Type of experiment: cell-based.
Experiment [2] has as its system GFP–paCaMKII F89G in hippocampal neurons. Put plainly: paCaMKII F89G photoactivation: dendritic spine growth (sLTP). Type of experiment: cell-based.

The structures appear in SMILES notation. Values joined by “and” are separate entries in the source; they are usually repeats but may differ in a detail not shown here. Equal entries are not always repeated.

Regarding `NCCNc1cccc(-c2ccnc3[nH]c4ccccc4c23)c1` [AS283], the “spine growth after photoactivation of paCaMKII T286A” value in experiment [1] (AS283 10 μM) is “spine growth”. In addition, the “dendritic spine growth after photoactivation (sheet 6c)” value in experiment [1] (paCaMKII T286A + AS283, individual neurons) was 17.1219 and 31.801 and 10.2332 and 47.3616 and 15.5579 and 21.0974 and 9.7214 and 4.0121 and 26.179.
Consider `CC(C)(C)n1nc(Cc2cccc3ccccc23)c2c(N)ncnc21` [NM-PP1], for which the “spine growth after photoactivation of paCaMKII F89G” value in experiment [2] (NM-PP1 10 μM) is listed as “spine growth”. Moreover, in experiment [2] (paCaMKII F89G + NMPP1, individual neurons), the “dendritic spine growth after photoactivation (sheet 6f)” value is 172.556 and 35.7596 and 20.47 and 19.9369 and 44.1548 and -7.983 and 10.7769 and 28.3493 and 0.9564 and -9.357 and -3.692 and 75.8167 and 167.851 and -2.441 and -1.61 and -17.673 and 155.504 and 81.1061.
